Reference: US9284283B2, “Macrocyclic compounds for modulating IL-17” (ENSEMBLE THERAPEUTICS CORPORATION, priority 2012, dated 2016)

Molecular target: T1, IL17A (Homo sapiens, UniProt Q16552)
T1 sequence (Q16552 24-155): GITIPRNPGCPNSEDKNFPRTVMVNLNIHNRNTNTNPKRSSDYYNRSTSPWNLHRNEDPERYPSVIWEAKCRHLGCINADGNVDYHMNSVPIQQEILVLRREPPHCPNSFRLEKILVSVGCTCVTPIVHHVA
Assay: Surface Plasmon Resonance (SPR) analysis of compound interactions with IL17A
Conditions: SPR binding to IL17A
Experimental: SPR analysis was carried out with a GE Healthcare (Piscataway, N.J.) Biacore X100 system. Typically, the chip (NTA Biacore Biosensor chip; GE Healthcare BR-1000-34) was first conditioned by injection of 0.35 M EDTA, which also served to remove any immobilized proteins from previous runs. Before immobilization of the recombinant 6-His-tagged IL17, the chip was washed with 0.5 mM nickel chloride in NTA buffer (10 mM HEPES buffer, 0.15 M sodium chloride, 10 μM ethylene diamine tetraacetic acid, 0.005% v/v surfactant P20 (GE Healthcare BR-1000-54)) to form a nickel chelate on the chip. IL17 protein was immobilized onto a NTA chip through its 6-His tag. IL17A was typically injected at 0.25 μM for 60-120 seconds, followed by a stabilization step washing with NTA+0.5% DMSO for 120 seconds or longer.
Five 2-fold or 3-fold serial dilutions of test compound were injected serially onto the chip. All steps were conducted using NTA buffer containing 0.5% v/v dimethylsulfoxide (DMSO). Compounds were diluted from stock solutions of 10 mM concentration in 100% DMSO with NTA buffer to obtain 50 μM solutions in NTA+0.5% DMSO. Subsequent 2× or 3× dilutions were made in NTA+0.5% DMSO. Compound was generally injected for 180 seconds followed by washing the chip in buffer alone for 120 seconds. The rate of refractive index change (RU units/time) and the maximum extend of RU change was measured during the “on” phase of analyte injection, followed by measuring the rate during the “off” phase.
Kinetic parameter fits were conducted using the Biacore SPR Evaluation Program (GE Healthcare) for 1:1 molecular binding fits, after subtracting the baseline average of 2 or more runs in which no analyte was injected. This program then reports the best fit average for the “on” rate (Ka), the “off” rate (Kd) and the dissociation constant (KD) (Chaiken, I et al., Anal Biochem 201, 197-210 (1992)). A separate program in the Biacore SPR Evaluation Program then calculates the best fit for Kd based upon the extent of binding alone (RU units bound) at each concentration of analyte and reports the best fit Kd by best fit to a Lineweaver-Burke plot. Typically, the Kd value calculated through both means agreed within a factor of three.
The presence and activity of IL17 on the NTA chip was routinely confirmed three ways: • 1) An increase in response units (RU) upon immobilization confirms that the IL17 was immobilized on the chip; • 2) Anti-IL17 was also injected on the chip to confirm the presence of IL17; and • 3) IL17R was injected onto the chip to confirm that the immobilized IL17 retained its binding activity for its receptor. Negative controls to access specificity for compound binding were conducted by immobilizing unrelated, but his-tagged, proteins (such as cyclophilin D) and conducting the same analysis as done with IL17A.

Kd, 1000 to 10000 nM:
CC[C@H](C)[C@H](NC(=O)c1ccccc1)C(=O)Nc1ccc(C[C@H]2NC(=O)CC3(CCCC3)CC(=O)N[C@H](C(=O)OC)CCCCNC(=O)CCCNC2=O)cc1 [Compound 123], COC(=O)[C@H]1CCCCNC(=O)CCCNC(=O)[C@H](Cc2ccc(NC(=O)[C@H](Cc3ccccc3F)NC(=O)Cc3ccccc3)cc2)NC(=O)CC2(CCCC2)CC(=O)N1 [Compound 101]

Kd, > 10000 nM:
O=C1CC2(CCCC2)CC(=O)N[C@@H](C(=O)O)CCCCNC(=O)[C@H](Cc2ccc(NC(=O)[C@H](Cc3ccccc3F)NC(=O)Cc3ccccc3)cc2)N1 [Compound 102], O=C1CCCNC(=O)[C@H](Cc2ccc(NC(=O)[C@H](Cc3ccccc3F)NC(=O)Cc3ccccc3)cc2)NC(=O)CC2(CCCC2)CC(=O)N[C@@H](C(=O)O)CCCCN1 [Compound 103]

Kd, < 100 nM:
O=C1CNC(=O)[C@@H](Cc2ccc(NC(=O)[C@H](Cc3ccccc3Cl)NC(=O)Cc3ccccc3)cc2)NC(=O)CC2(CCCC2)CC(=O)NCCCCN1 [Compound 162], O=C1CCCNC(=O)[C@@H](Cc2ccc(NC(=O)[C@H](Cc3ccccc3Cl)NC(=O)Cc3ccccc3)cc2)NC(=O)CC2(CCCC2)CC(=O)NCCCCCN1 [Compound 161], O=C1CCCNC(=O)[C@@H](Cc2ccc(NC(=O)[C@H](Cc3ccccc3Cl)NC(=O)Cc3ccccc3)cc2)NC(=O)CC2(CCCC2)CC(=O)NCCCCN1 [Compound 166], O=C1CCNC(=O)[C@@H](Cc2ccc(NC(=O)[C@H](Cc3ccccc3Cl)NC(=O)Cc3ccccc3)cc2)NC(=O)CC2(CCCC2)CC(=O)NCCCCCN1 [Compound 160], CC(=O)N[C@@H](Cc1ccccc1Cl)C(=O)Nc1ccc(C[C@H]2NC(=O)CC3(CCCC3)CC(=O)NCCCCNC(=O)CNC2=O)cc1 [Compound 163], O=C1CNC(=O)[C@@H](Cc2ccc(NC(=O)[C@H](Cc3ccccc3Cl)NC(=O)c3ccc(O)cc3)cc2)NC(=O)CC2(CCCC2)CC(=O)NCCCCCN1 [Compound 215], CC(=O)N[C@@H](Cc1ccccc1Cl)C(=O)Nc1ccc(C[C@H]2NC(=O)CC3(CCCC3)CC(=O)N(CCO)CCCCCNC(=O)CCCNC2=O)cc1 [Compound 173], COC(=O)[C@H]1CCCCNC(=O)CNC(=O)[C@@H](Cc2ccc(NC(=O)[C@H](Cc3ccccc3F)NC(=O)Cc3ccccc3)cc2)NC(=O)CC2(CCCC2)CC(=O)N1 [Compound 149], CC(=O)N[C@@H](Cc1ccccc1Cl)C(=O)Nc1ccc(C[C@H]2NC(=O)CC3(CCCC3)CC(=O)N(CCO)CCCCCNC(=O)CCNC2=O)cc1 [Compound 171], COC(=O)[C@H]1CCCCNC(=O)CCCNC(=O)[C@@H](Cc2ccc(NC(=O)[C@H](Cc3ccccc3F)NC(=O)c3ccccc3)cc2)NC(=O)CC2(CCCC2)CC(=O)N1 [Compound 136], O=C1CNC(=O)[C@@H](Cc2ccc(NC(=O)[C@H](Cc3ccccc3Cl)NC(=O)c3ccncc3)cc2)NC(=O)CC2(CCCC2)CC(=O)NCCCCCN1 [Compound 208], O=C1CNC(=O)[C@@H](Cc2ccc(NC(=O)[C@H](Cc3ccc(Cl)cc3Cl)NC(=O)Cc3ccccc3)cc2)NC(=O)CC2(CCCC2)CC(=O)NCCOCCN1 [Compound 210], COC(=O)[C@H]1CCCCNC(=O)CNC(=O)[C@@H](Cc2ccc(NC(=O)[C@H](Cc3ccccc3F)NC(=O)c3ccccc3)cc2)NC(=O)CC2(CCCC2)CC(=O)N1 [Compound 150], CC(=O)N[C@@H](Cc1ccccc1Cl)C(=O)Nc1ccc(C[C@H]2NC(=O)CC3(CCCC3)CC(=O)NCCCCNC(=O)CCNC2=O)cc1 [Compound 165], O=C1CCCNC(=O)[C@@H](Cc2ccc(NC(=O)[C@H](Cc3ccccc3Cl)NC(=O)Cc3ccccc3)cc2)NC(=O)CC2(CCCC2)CC(=O)N(CCO)CCCCCN1 [Compound 172]

Kd, 100 to 1000 nM:
O=C1CCCNC(=O)[C@@H](Cc2ccc(NC(=O)[C@H](Cc3ccccc3F)NC(=O)Cc3ccccc3)cc2)NC(=O)CC2(CCCC2)CC(=O)N[C@H](C(=O)O)CCCCN1 [Compound 175], COC(=O)[C@@H]1Cc2ccc(cc2)NC(=O)CCCNC(=O)[C@@H](Cc2ccc(NC(=O)[C@H](Cc3ccccc3F)NC(=O)Cc3ccccc3)cc2)NC(=O)CC2(CCCC2)CC(=O)N1 [Compound 135], COC(=O)[C@@H]1CCCCNC(=O)CCCNC(=O)[C@@H](Cc2ccc(NC(=O)[C@H](Cc3ccccc3F)NC(=O)c3ccccc3)cc2)NC(=O)CC2(CCCC2)CC(=O)N1 [Compound 128], COC(=O)[C@@H]1CCCCNC(=O)CCCNC(=O)[C@@H](Cc2ccc(NC(=O)[C@H](Cc3ccccc3Br)NC(=O)c3ccccc3)cc2)NC(=O)CC2(CCCC2)CC(=O)N1 [Compound 121], COC(=O)[C@@H]1CCCCNC(=O)CCCNC(=O)[C@H](Cc2ccc(NC(=O)[C@H](Cc3ccccc3F)NC(=O)c3ccccc3)cc2)NC(=O)CC2(CCCC2)CC(=O)N1 [Compound 137], CC(=O)N[C@@H](Cc1ccccc1Cl)C(=O)Nc1ccc(C[C@H]2NC(=O)CC3(CCCC3)CC(=O)NCCCNC(=O)CNC2=O)cc1 [Compound 152], COC(=O)[C@@H]1CCCCNC(=O)CCCNC(=O)[C@@H](Cc2ccc(NC(=O)[C@H](Cc3ccccc3C)NC(=O)c3ccccc3)cc2)NC(=O)CC2(CCCC2)CC(=O)N1 [Compound 127], COC(=O)[C@@H]1CCCCNC(=O)CCCNC(=O)[C@@H](Cc2ccc(NC(=O)[C@H](Cc3ccccc3)NC(=O)c3ccccc3)cc2)NC(=O)CC2(CCCC2)CC(=O)N1 [Compound 115], COC(=O)[C@@H]1CCCCNC(=O)CCCNC(=O)[C@@H](Cc2ccc(NC(=O)[C@H](Cc3ccccc3)NC(=O)Cc3ccccc3)cc2)NC(=O)CC2(CCCC2)CC(=O)N1 [Compound 114], COC(=O)[C@@H]1CCCCNC(=O)CCCNC(=O)[C@@H](Cc2ccc(NC(=O)[C@H](Cc3ccccc3C)NC(=O)Cc3ccccc3)cc2)NC(=O)CC2(CCCC2)CC(=O)N1 [Compound 126], COC(=O)[C@@H]1CCCCNC(=O)CCCCCNC(=O)[C@@H](Cc2ccc(NC(=O)[C@H](Cc3ccccc3F)NC(=O)Cc3ccccc3)cc2)NC(=O)CC2(CCCC2)CC(=O)N1 [Compound 111], COC(=O)[C@@H]1CCCCNC(=O)CCCNC(=O)[C@@H](Cc2ccc(NC(=O)[C@H](Cc3ccccc3)NC(=O)Cc3ccc(C(F)(F)F)cc3)cc2)NC(=O)CC2(CCCC2)CC(=O)N1 [Compound 140], COC(=O)[C@@H]1CCCCNC(=O)CCCNC(=O)[C@@H](Cc2ccc(NC(=O)[C@H](Cc3cccc(F)c3)NC(=O)Cc3ccccc3)cc2)NC(=O)CC2(CCCC2)CC(=O)N1 [Compound 116], COC(=O)[C@H]1CCCCNC(=O)[C@H](CO)NC(=O)[C@@H](Cc2ccc(NC(=O)[C@H](Cc3ccccc3Cl)NC(=O)Cc3ccccc3)cc2)NC(=O)CC2(CCCC2)CC(=O)N1 [Compound 147], O=C1CNC(=O)[C@@H](Cc2ccc(NC(=O)[C@H](Cc3c(F)cccc3F)NC(=O)Cc3ccc(O)cc3)cc2)NC(=O)CC2(CCCC2)CC(=O)NCCCCCN1 [Compound 190], COC(=O)[C@@H]1CCCCNC(=O)CCCNC(=O)[C@@H](Cc2ccc(NC(=O)[C@H](Cc3ccc(-c4ccccc4)cc3)NC(=O)c3ccccc3)cc2)NC(=O)CC2(CCCC2)CC(=O)N1 [Compound 125], COC(=O)[C@H]1CCCCNC(=O)[C@H](CO)NC(=O)[C@@H](Cc2ccc(NC(=O)[C@H](Cc3ccccc3Cl)NC(=O)c3ccccc3)cc2)NC(=O)CC2(CCCC2)CC(=O)N1 [Compound 148], COC(=O)[C@@H]1CCCCNC(=O)CCCNC(=O)[C@@H](Cc2ccc(NC(=O)[C@H](Cc3ccc(F)cc3)NC(=O)c3ccccc3)cc2)NC(=O)CC2(CCCC2)CC(=O)N1 [Compound 119], CC1(C)NC(=O)[C@@H](Cc2ccc(NC(=O)[C@H](Cc3ccccc3Cl)NC(=O)Cc3ccccc3)cc2)NC(=O)CC2(CCCC2)CC(=O)N[C@@H](C(=O)O)CCCCNC1=O [Compound 182], O=C1CCCNC(=O)[C@@H](Cc2ccc(NC(=O)[C@H](Cc3ccccc3F)NC(=O)Cc3ccccc3)cc2)NC(=O)CC2(CCCC2)CC(=O)N[C@@H](C(=O)O)CCCCN1 [Compound 176]
